The values below come from patent publication US11213527B2, “Inhibitory effect of low molecular weight compound on cancer and fibrosis” (NATIONAL UNIVERSITY CORPORATION TOTTORI UNIVERSITY, priority 2014, dated 2022).

The test system of assay [1] is colon cancer cells (DLD-1, HCT 116, colo 205). As to the kind of experiment: Anti-tumor effect on colon cancer cells (TetraColor ONE). It is filed as cell-based. Particulars: 48 hours. As for the experimental part: Colon cancer cells (DLD-1, HCT 116, colo 205) were cultured in a DMEM on a 10-cm cell culture dish (TPP Techno Plastic Products AG, Trasadingen, Switzerland) at 5% CO2, 37° C., and a humidity of 100%. The cells at 70-90% confluency were split and washed with PBS (−). Next, 300 μL of Trypsin/EDTA was added to 2 mL of PBS (−) and the cells were incubated with this solution at 37° C. for 5 min to detach the cells. Then, 5 mL of DMEM was used to recover the cells. The recovered cells were centrifuged at 1000 rpm for 3 min to remove a supernatant. Then the cells were suspended in DMEM at 1:4 and subcultured.
First, 5×10^5 colon cancer cells (DLD-1, HCT 116, or colo 205) were seeded on a 96-well plate (TPP). Forty-eight hours after the low-molecular-weight compound treatment, 100 μL of 10% TetraColor ONE (SEIKAGAKU CORPORATION, Tokyo, Japan) was added and the mixture was then incubated at 37° C. After that, absorbance (at a measurement wavelength of 450 nm/a control wavelength of 600 nm) was measured by using a 96-well microplate reader (TECAN, Zurich, Switzerland).

Assay [2] has as its system Wnt/β-catenin signal. Nature of the assay: Dual-luciferase reporter assay in colon cancer cells. Particulars: DLD-1, HCT 116, colo 205; 48 hours. It counts as cell-based. As for the experimental part: First, 3.34×10^4 colon cancer cells (DLD-1, HCT 116, or colo 205) were seeded on each well of a 24-well plate. After 24 hours, transfection was carried out by using 1 μL of lipofectamine 2000 (Invitrogen, Life Technologies Corp., Carlsbad, Calif.), 50 ng of pTCF4-CMVpro-FLuc, and 2.5 ng of pCMVpro-Rluc. After 48 hours from the low-molecular-weight compound treatment, 100 μL of 20% Passive Lysis Buffer (PROMEGA, Wisconsin, USA) was added to each well of a 24-well plate. The plate was shaken at ordinary temperature for 15 min and was then allowed to stand overnight at −30° C. On the following day, a Dual-Luciferase (a registered trademark) Reporter Assay System (PROMEGA) was used, and luciferase activity was then measured by using a MiniLumat LB 9506 (Berthold Technologies, Bad Wildbad, German).
Background: A reporter such as luciferase makes a cellular process visible.

The test system of assay [3] is squamous cell carcinoma cells (HSC2; HSC3 for IC-2). As to the kind of experiment: Anti-tumor effect on squamous cell carcinoma cells (TetraColor ONE). It counts as cell-based. Particulars: HSC2 (HSC3 also for IC-2); 48 hours. As for the experimental part:
HSC2 cells (a squamous cell carcinoma cell line) were cultured in a DMEM on a 10-cm cell culture dish (TPP Techno Plastic Products AG, Trasadingen, Switzerland) at 5% CO2, 37° C., and a humidity of 100%. The cells at 70-90% confluency were to be split and washed with PBS (−). Next, 300 μL of Trypsin/EDTA was added to 2 mL of PBS (−) and the cells were incubated with this solution at 37° C. for 5 min to detach the cells. Then, 5 mL of DMEM was used to recover the cells. The recovered cells were centrifuged at 1000 rpm for 3 min to remove a supernatant. The pelleted cells were suspended in DMEM and subcultured at 1:4.
First, 2.5×10^3 of HSC2 cells were seeded on each well of a 96-well plate (TPP). After 48 hours from the low-molecular-weight compound treatment, 100 μL of 10% TetraColor ONE (SEIKAGAKU CORPORATION, Tokyo, Japan) was added and the mixture was then incubated at 37° C. After that, absorbance (at a measurement wavelength of 450 nm/a control wavelength of 600 nm) was measured by a 96-well microplate reader (TECAN, Zurich, Switzerland). The same procedure was used to investigate an anti-tumor effect of IC-2 on a squamous cell carcinoma cell line HSC3 after culturing.

The test system of the next assay is unsorted HuH7 cells. Nature of the assay: Mice transplanted with unsorted HuH7 cells. It counts as in vivo. Particulars: unsorted HuH7 cells instead of CD44-positive HuH7 cells. The text has this: The effect of treating malignant tumors may be evaluated by imaging, endoscopic examination, biopsy, or detection of a malignant tumor marker. In addition, the effect of treating cancer stem cells may be evaluated by imaging, endoscopic examination, biopsy, or detection of a cancer stem cell marker. In addition, the effect of treating fibrosis may be evaluated by imaging, endoscopic examination, biopsy, or detection of a fibrosis marker. […] At this time, the level of a marker after administration of a therapeutic drug may be 0.7, 0.5, 0.3, or 0.1 times the level before the administration (or of a control). […] At this time, the number of marker-positive cells after administration of the therapeutic drug may be 0.7, 0.5, 0.3, or 0.1 times the number before the administration (or of a control). Note that in Example 2 below, the therapeutic effect was evaluated by using mice in which CD44-positive HuH7 cells had been subcutaneously transplanted. The present inventors also replaced the above CD44-positive HuH7 cells by unsorted HuH7 cells.

The subject of assay [4] is Wnt/β-catenin signal. Particulars: induces differentiation of the mesenchymal stem cell into hepatocytes; cited from earlier work.

SMILES strings stand for the structures.

On to `O=C1[C@H](Cc2ccccc2)N2C(=O)CCN(C(=O)NCc3ccccc3)[C@H]2CN1Cc1cccc2ccccc12` [IC-2], for which, in assay [1], the “inhibitory effect on proliferation of the colon cancer cells” value is “exerted an inhibitory effect on proliferation”. For the same molecule, the “inhibitory effect on a Wnt/β-catenin signal in the colon cancer cells” value in the assay on Wnt/β-catenin signal [2] was “exerted an inhibitory effect”. For the same molecule, the “inhibitory effects on proliferation of the squamous cell carcinoma cells” value in assay [3] is recorded as “exerted inhibitory effects on proliferation”. In addition, in the assay on unsorted HuH7 cells, the “effect of treating a malignant tumor” value is “exhibits an effect of treating a malignant tumor”. In addition, in the assay on Wnt/β-catenin signal [4], the “inhibition of a Wnt/β-catenin signal in a mesenchymal stem cell” value was “inhibit a Wnt/β-catenin signal”.
